Source: ChEMBL document CHEMBL1137082, “Potent and selective conformationally restricted neuronal nitric oxide synthase inhibitors” (J Med Chem, 2004)

Biological target: T1, Nitric oxide synthase 3 (Bos taurus, UniProt P29473)
T1 sequence (P29473 whole entry): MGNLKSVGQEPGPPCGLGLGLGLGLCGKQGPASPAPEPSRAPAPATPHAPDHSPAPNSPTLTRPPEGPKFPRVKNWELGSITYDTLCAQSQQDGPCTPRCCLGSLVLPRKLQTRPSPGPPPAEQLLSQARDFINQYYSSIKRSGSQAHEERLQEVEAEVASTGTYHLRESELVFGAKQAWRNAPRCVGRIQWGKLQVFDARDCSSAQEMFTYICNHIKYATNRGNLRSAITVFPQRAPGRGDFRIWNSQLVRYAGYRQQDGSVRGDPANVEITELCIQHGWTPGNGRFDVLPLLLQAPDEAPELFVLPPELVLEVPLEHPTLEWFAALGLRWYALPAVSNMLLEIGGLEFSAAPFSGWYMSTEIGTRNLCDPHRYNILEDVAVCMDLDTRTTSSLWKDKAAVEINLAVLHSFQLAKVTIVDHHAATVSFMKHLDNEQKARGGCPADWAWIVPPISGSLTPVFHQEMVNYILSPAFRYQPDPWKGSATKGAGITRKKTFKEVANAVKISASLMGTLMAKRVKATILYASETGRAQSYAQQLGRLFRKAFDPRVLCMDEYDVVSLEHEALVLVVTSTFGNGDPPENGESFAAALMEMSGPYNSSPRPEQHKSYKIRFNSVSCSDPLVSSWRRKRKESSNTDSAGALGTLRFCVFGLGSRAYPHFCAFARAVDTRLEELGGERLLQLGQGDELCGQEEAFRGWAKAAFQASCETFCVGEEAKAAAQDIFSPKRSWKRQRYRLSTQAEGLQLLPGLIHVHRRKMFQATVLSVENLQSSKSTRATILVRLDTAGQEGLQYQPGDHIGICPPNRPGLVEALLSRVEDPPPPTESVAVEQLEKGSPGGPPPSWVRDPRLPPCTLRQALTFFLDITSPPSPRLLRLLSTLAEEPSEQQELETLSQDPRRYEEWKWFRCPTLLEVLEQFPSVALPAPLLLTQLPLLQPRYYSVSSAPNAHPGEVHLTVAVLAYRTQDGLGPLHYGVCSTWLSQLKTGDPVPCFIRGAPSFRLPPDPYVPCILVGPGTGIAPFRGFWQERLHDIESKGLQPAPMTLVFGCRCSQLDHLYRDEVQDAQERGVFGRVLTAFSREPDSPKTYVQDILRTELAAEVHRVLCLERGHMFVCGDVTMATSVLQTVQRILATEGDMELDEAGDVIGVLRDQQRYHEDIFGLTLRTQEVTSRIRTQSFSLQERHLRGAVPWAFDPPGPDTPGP
Assay: Inhibitory activity against endothelial nitric oxide synthase (eNOS)

NC(=O)[C@@H]1C[C@H](NC(=O)C(F)(F)F)CN1C(=O)[C@@H](N)CCC/N=C(\N)N[N+](=O)[O-]
IC50: > 100 µM

NC(=O)[C@@H]1C[C@@H](NC(=O)C(F)(F)F)CN1C(=O)[C@H](N)CCC/N=C(\N)N[N+](=O)[O-]
IC50: > 100 µM

N=C(NCCC[C@H](N)C(=O)N1CC(NC(=O)C(F)(F)F)C[C@@H]1C(N)=O)N[N+](=O)[O-] (single isomer, unassigned; cis)
IC50: > 100 µM

[N-]=[N+]=NC1CN[C@@H](C(=O)N[C@H](CCCNC(=N)N[N+](=O)[O-])C(N)=O)C1 (single isomer, unassigned; trans)
IC50: > 100 µM

NC(=O)[C@H]1CC(NC(=O)C(F)(F)F)CN1C(=O)[C@H](N)CCC/N=C(/N)N[N+](=O)[O-] (single isomer, unassigned; trans)
IC50: > 100 µM

N=C(NCCC[C@H](NC(=O)C1C[C@@H](N)CN1)C(N)=O)N[N+](=O)[O-] (single isomer, unassigned)
IC50: > 100 µM

NC(=O)C1CC(N)CN1C(=O)C(N)CCC/N=C(\N)N[N+](=O)[O-] (stereo not drawn)
IC50: > 100 µM

N=C(NCCC[C@H](NC(=O)C1C[C@H](N)CN1)C(N)=O)N[N+](=O)[O-] (single isomer, unassigned)
IC50: > 100 µM

N=C(NCCC[C@@H](N)C(=O)N1CC(N)C[C@@H]1C(N)=O)N[N+](=O)[O-] (single isomer, unassigned; trans)
IC50: > 100 µM

N=C(NCCC[C@H](N)C(=O)N1CC(NC(=O)C(F)(F)F)C[C@@H]1C(N)=O)N[N+](=O)[O-] (single isomer, unassigned; trans)
IC50: > 100 µM

N=C(NCCC[C@@H](N)C(=O)N1CC(NC(=O)C(F)(F)F)C[C@@H]1C(N)=O)N[N+](=O)[O-] (single isomer, unassigned; cis)
IC50: > 100 µM

N=C(NCCC[C@H](N)C(=O)N1CC(N)C[C@@H]1C(N)=O)N[N+](=O)[O-] (single isomer, unassigned; cis)
IC50: > 100 µM

[N-]=[N+]=N[C@@H]1CNC(C(=O)N[C@H](CCCNC(=N)N[N+](=O)[O-])C(N)=O)C1 (single isomer, unassigned)
IC50: > 100 µM

NC(=O)[C@@H]1C[C@@H](N)CN1C(=O)[C@H](N)CCC/N=C(\N)N[N+](=O)[O-]
IC50: > 100 µM

N=C(NCCC[C@@H](NC(=O)C1C[C@@H](N)CN1)C(N)=O)N[N+](=O)[O-] (single isomer, unassigned)
IC50: > 100 µM

[N-]=[N+]=NC1CN[C@@H](C(=O)N[C@H](CCCNC(=N)N[N+](=O)[O-])C(N)=O)C1 (single isomer, unassigned; cis)
IC50: > 100 µM

NC(=O)[C@@H]1C[C@H](N)CN1C(=O)[C@@H](N)CCC/N=C(\N)N[N+](=O)[O-]
IC50: > 100 µM

NC(=O)[C@@H]1C[C@H](N)CN1C(=O)[C@H](N)CCC/N=C(\N)N[N+](=O)[O-]
IC50: > 100 µM

NC(=O)[C@@H]1C[C@H](NC(=O)C(F)(F)F)CN1C(=O)[C@H](N)CCC/N=C(\N)N[N+](=O)[O-]
IC50: > 100 µM

NC(=O)[C@H]1CC(N)CN1C(=O)[C@@H](N)CCC/N=C(\N)N[N+](=O)[O-] (single isomer, unassigned; trans)
IC50: > 100 µM

N=C(NCCC[C@@H](NC(=O)C1C[C@H](N)CN1)C(N)=O)N[N+](=O)[O-] (single isomer, unassigned)
IC50: > 100 µM

[N-]=[N+]=N[C@@H]1CNC(C(=O)N[C@@H](CCC/N=C(\N)N[N+](=O)[O-])C(N)=O)C1 (single isomer, unassigned)
IC50: > 100 µM

[N-]=[N+]=N[C@H]1CN[C@@H](C(=O)C[C@@H](CCC/N=C(\N)N[N+](=O)[O-])C(N)=O)C1
IC50: > 100 µM
